Measurements reported in PubChem BioAssay (NCI).
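Dose response: 5 concentrations. Exposure: 48 h. Format: 96-well plates. Endpoint: linear interpolation; highest concentration if not reached. GI50 = concentration required for 50% inhibition of growth. TGI is the concentration that stops growth completely.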

Key:
Assay in all cases: NCI-60 cell line screen, 48 h
A549 NSCLC = tested on: A549 NSCLC
MDA-MB-435 = tested on: MDA-MB-435
RPMI-8226 leukemia = tested on: RPMI-8226 leukemia
RXF 393 renal = tested on: RXF 393 renal
SF-268 CNS = tested on: SF-268 CNS
SK-MEL-28 melanoma = tested on: SK-MEL-28 melanoma
SR leukemia = tested on: SR leukemia
MDA-N = tested on: MDA-N
OVCAR-3 ovarian = tested on: OVCAR-3 ovarian
SK-MEL-2 melanoma = tested on: SK-MEL-2 melanoma

| SMILES | TGI (A549 NSCLC) [µM] | TGI (MDA-MB-435) [µM] | TGI (RPMI-8226 leukemia) [µM] | TGI (RXF 393 renal) [µM] | TGI (SF-268 CNS) [µM] | TGI (SK-MEL-28 melanoma) [µM] | TGI (SR leukemia) [µM] | TGI (MDA-N) [µM] | TGI (OVCAR-3 ovarian) [µM] | GI50 (RXF 393 renal) [µM] | TGI (SK-MEL-2 melanoma) [µM] | GI50 (OVCAR-3 ovarian) [µM] | GI50 (SF-268 CNS) [µM] | GI50 (SK-MEL-28 melanoma) [µM] | GI50 (SR leukemia) [µM] |
| --- | --- | --- | --- | --- | --- | --- | --- | --- | --- | --- | --- | --- | --- | --- | --- |
| Fc1ccc2c3c([nH]c2c1)CCN(Cc1ccccc1)C3 | 45.5 | 34.3 | 77.2 | 31 | 49.2 | 30.3 | 40.7 | – | – | – | – | – | – | – | – |
| N[C@@H]1CCN(c2c(F)cc3c(=O)c(C(=O)O)cn4c3c2Oc2cc3c(ccc5ccccc53)cc2-4)C1 | > 100 | > 100 | > 100 | > 100 | – | > 93.2 | – | > 100 | 34.5 | 3.78 | > 78 | – | – | – | – |
| O=C(CSCC(=O)N/N=C\c1cccc([N+](=O)[O-])c1)N/N=C\c1cccc([N+](=O)[O-])c1 | > 100 | > 100 | > 100 | > 100 | > 100 | > 100 | > 100 | – | 84.1 | – | > 100 | – | – | – | – |
| CC(=O)NCC1OC2COC(c3ccccc3)OC2C(NC(=O)c2ccccc2)C1OC(=O)c1ccccc1 (stereo unspecified) | > 100 | > 100 | – | > 100 | > 100 | > 100 | – | > 100 | > 100 | – | > 100 | – | – | – | – |
| COc1c(C(=O)NCCN(CCNC(=O)c2cccc(-c3cccc(C(=O)N(C)C)c3OC)c2OC)CCNC(=O)c2cccc(-c3cccc(C(=O)N(C)C)c3OC)c2OC)cccc1-c1cccc(C(=O)N(C)C)c1OC | > 100 | 39.8 | 63.7 | 63 | 47.2 | 41.5 | 71.5 | 37.9 | 32.5 | – | – | – | – | – | – |
| CC(C)C1NC(=O)CC(c2ccccc2)N(N=O)C1c1ccccc1 (stereo unspecified) | > 100 | – | > 100 | > 100 | > 100 | > 100 | – | – | > 100 | – | > 100 | – | – | – | – |
| COc1cc2c(c(OC)c1OC)-c1ccc(SC)c(=O)cc1[C@@H](O)CC2 | > 100 | – | > 100 | > 100 | – | > 100 | – | 0.000318 | – | > 100 | – | 0.000322 | 0.0153 | > 100 | 0.0667 |
| CCOP(=O)(OCC)C(C(=O)OC)C(=O)C(=O)Nc1cccc(O)c1 (stereo unspecified) | > 100 | > 100 | – | > 100 | > 100 | > 100 | > 100 | > 100 | > 100 | – | > 100 | – | – | – | – |
| COc1ccc2c(c1)CCCN1CCc3ccccc3C21 (stereo unspecified) | > 100 | 43.2 | – | 73 | > 100 | > 100 | 61.2 | 52.9 | > 100 | – | > 100 | – | – | – | – |
| CC(=O)O[C@H]1C(=O)[C@@]2(C)[C@H]([C@H](OC(=O)c3ccccc3)[C@]3(O)C[C@H](OC(=O)[C@H](O)[C@@H](NC(=O)c4ccco4)c4ccccc4)C(C)=C1C3(C)C)[C@]1(OC(C)=O)CO[C@@H]1C[C@@H]2O | > 12.5 | – | < 0.00125 | – | > 12.5 | > 12.5 | > 12.5 | – | 0.00548 | – | – | – | – | – | – |
| CC1=CC[C@@]2(C)CC[C@](O)(C(C)C)C2C(OC(=O)c2ccccc2)C1 (stereo partly specified) | 37.3 | 93.2 | 37.2 | 27.3 | 51.7 | 58.4 | 97 | – | 31.8 | – | 32.2 | – | – | – | – |
| CCOC(=O)/C(=N/Nc1ccccc1)N1C(=S)C=C(C)NN(C)C1=S | > 100 | > 100 | > 100 | 20.1 | > 100 | > 100 | > 100 | – | > 100 | – | > 100 | – | – | – | – |
| Cn1cc2ccccc2c1-c1nc(F)nc(Oc2ccc3c(c2)CC[C@@H]2C3CC[C@@]3(C)C2C[C@H](O)[C@@H]3O)n1 (stereo partly specified) | 34.1 | – | 41.9 | 66.6 | 36.8 | 38.9 | – | – | 78.8 | – | 38.1 | – | – | – | – |
| CCOC(=O)c1nc2cc(C(F)(F)F)ccc2nc1Nc1ccc(C(=O)OC)s1 | > 100 | > 100 | > 100 | 50.8 | > 100 | > 100 | 39.6 | – | 48.7 | – | 43.5 | – | – | – | – |
| COc1ccc(-c2c3c(n(C4OC(CO)C(O)C(O)C4O)c(=S)c2C#N)CCCC3)cc1 (stereo unspecified) | > 100 | > 100 | – | > 100 | – | – | > 100 | > 100 | > 100 | – | > 100 | – | – | – | – |
| CCCCCCCCCOCC(COP(=O)([O-])OCC[N+](C)(C)C)OC (stereo unspecified) | > 100 | – | > 100 | > 100 | > 100 | > 100 | – | – | > 100 | – | > 100 | – | – | – | – |
| O=C(c1ccc(Cl)cc1)c1ccc(OCCCOc2ccc(C(=O)c3ccc(Cl)cc3)cc2Cl)c(Cl)c1 | > 100 | – | > 100 | > 100 | – | > 100 | > 100 | – | > 100 | – | > 100 | – | – | – | – |
| O=C1NN(Cc2ccccc2)C(=O)N2CCC[C@@H]12 | > 100 | > 100 | – | > 100 | > 100 | > 100 | – | > 100 | > 100 | – | > 100 | – | – | – | – |
| CC1CCC2CC(=O)OC([C@@H]3C(=O)O[C@@H](C4=CCCC4)C4C(C)CCC43)C12 (stereo partly specified) | > 100 | – | > 100 | > 100 | > 100 | > 100 | > 100 | – | > 100 | – | > 100 | – | – | – | – |
| CC(Nc1ccc(Cl)c(Cl)c1)c1ccncc1 (stereo unspecified) | > 100 | > 100 | 28.7 | 54.3 | > 100 | > 100 | – | 66.6 | 84.3 | – | 55.6 | – | – | – | – |
| O=[N+]([O-])c1ccc(-n2nc3ccc4c(no[n+]4[O-])c3n2)cc1 | > 100 | > 100 | – | – | > 100 | > 100 | > 100 | > 100 | > 100 | – | > 100 | – | – | – | – |
| CCCCc1ccc(Nc2nc(OC)c3ncn(C4CC(O)C(CO)O4)c3n2)cc1 (stereo unspecified) | 39.3 | 36.6 | 71.9 | 31.7 | 34.5 | – | – | 30 | 54.3 | – | 47.5 | – | – | – | – |
| CCOC(=O)CC(NC(=O)c1[nH]cnc1/N=N/N(C)C)C(=O)OCC (stereo unspecified) | > 100 | – | > 100 | – | > 100 | > 100 | > 100 | – | > 100 | – | > 100 | – | – | – | – |
